These results are taken from patent US9332770B2, “Anti-listerial mixed culture and method for producing cheese” (CSK Food Enrichment B.V., priority 2011, dated 2016).

For experiment [1], the system named is Lactobacillus plantarum LMG P-26358. The experiment can be described thus: growth profile in MRS broth substituted with various sugars. To be noted: for GT (generation time) / μmax (specific growth rate): 2% sugar in the MRS broth; for ability of Lb. plantarum LMG P-26358 to grow on the sugar: sugar acidification profiles. Format: cell-based.
Experiment [2] concerns L. innocua. In words: frequency of bacteriocin resistance development. The class given is cell-based, Listeria innocua. To be noted: 2560 au/ml bacteriocin (purified preparation) and/or 320 au/ml nisin. Here is the method: The frequency of development of resistance in L. innocua to 2560 au/ml of the bacteriocin produced by Lb. plantarum LMG P-26358 (purified preparation) was calculated at 1.13×10^−3. […] The resistant colonies were picked off and tested for their sensitivity to the bacteriocin produced by Lb. plantarum LMG P-26358.

Consider `O=C[C@H](O)[C@@H](O)[C@H](O[C@@H]1O[C@H](CO)[C@@H](O)[C@H](O)[C@H]1O)[C@H](O)CO` [Cellobiose], for which, in experiment [1], the “GT (generation time)” value was 90 min, the “μmax (specific growth rate)” value was determined as 0.2018 OD600 · hour^−1 and the “ability of Lb. plantarum LMG P-26358 to grow on the sugar” value is given as “capable of growing”.
For `O=C(CO)[C@@H](O)[C@H](O)[C@H](O)CO` [Fructose], in that order: 104 min, 0.174 OD600 · hour^−1 and “capable of growing”.
In the same order, the values of `O=C[C@H](O)[C@@H](O)[C@@H](O)[C@H](O)CO` [Galactose] are 123 min, 0.1473 OD600 · hour^−1 and “capable of growing”.
For `OC[C@H]1O[C@@H](O[C@H]2[C@H](O)[C@@H](O)C(O)O[C@@H]2CO)[C@H](O)[C@@H](O)[C@H]1O` (stereo partly shown) [Lactose], in that order: 100 min, 0.1815 OD600 · hour^−1 and “can grow efficiently”.
Turning to `OC[C@H]1O[C@H](O[C@H]2[C@H](O)[C@@H](O)[C@H](O)O[C@@H]2CO)[C@H](O)[C@@H](O)[C@@H]1O` [Maltose], in experiment [1], the “GT (generation time)” value came to 79 min, the “μmax (specific growth rate)” value amounted to 0.2277 OD600 · hour^−1 and the “ability of Lb. plantarum LMG P-26358 to grow on the sugar” value was “capable of growing”.
For `OC[C@H]1O[C@H](OC[C@H]2O[C@H](O[C@]3(CO)O[C@H](CO)[C@@H](O)[C@@H]3O)[C@H](O)[C@@H](O)[C@@H]2O)[C@H](O)[C@@H](O)[C@H]1O` [Raffinose], in that order: 246 min, 0.0734 OD600 · hour^−1 and “unable to metabolise”.
For `OC[C@H]1O[C@@](CO)(O[C@H]2O[C@H](CO)[C@@H](O)[C@H](O)[C@H]2O)[C@@H](O)[C@@H]1O` [Sucrose], in that order: 86 min, 0.2088 OD600 · hour^−1 and “capable of growing”.
In the same order, the values of `OC[C@H]1O[C@H](O[C@H]2O[C@H](CO)[C@@H](O)[C@H](O)[C@H]2O)[C@H](O)[C@@H](O)[C@@H]1O` [Trehalose] are 92 min, 0.1963 OD600 · hour^−1 and “capable of growing”.
Turning to nisin, in experiment [2], the “frequency of development of resistance in L. innocua” value was 2.16×10^−2.
